One data set has as its target T1, hTLR8 (Homo sapiens, UniProt Q9NR97).
T1 construct: expressed in transfected cells; host or cells: HEK-Blue hTLR8 cells
T1 sequence (Q9NR97 27-1041): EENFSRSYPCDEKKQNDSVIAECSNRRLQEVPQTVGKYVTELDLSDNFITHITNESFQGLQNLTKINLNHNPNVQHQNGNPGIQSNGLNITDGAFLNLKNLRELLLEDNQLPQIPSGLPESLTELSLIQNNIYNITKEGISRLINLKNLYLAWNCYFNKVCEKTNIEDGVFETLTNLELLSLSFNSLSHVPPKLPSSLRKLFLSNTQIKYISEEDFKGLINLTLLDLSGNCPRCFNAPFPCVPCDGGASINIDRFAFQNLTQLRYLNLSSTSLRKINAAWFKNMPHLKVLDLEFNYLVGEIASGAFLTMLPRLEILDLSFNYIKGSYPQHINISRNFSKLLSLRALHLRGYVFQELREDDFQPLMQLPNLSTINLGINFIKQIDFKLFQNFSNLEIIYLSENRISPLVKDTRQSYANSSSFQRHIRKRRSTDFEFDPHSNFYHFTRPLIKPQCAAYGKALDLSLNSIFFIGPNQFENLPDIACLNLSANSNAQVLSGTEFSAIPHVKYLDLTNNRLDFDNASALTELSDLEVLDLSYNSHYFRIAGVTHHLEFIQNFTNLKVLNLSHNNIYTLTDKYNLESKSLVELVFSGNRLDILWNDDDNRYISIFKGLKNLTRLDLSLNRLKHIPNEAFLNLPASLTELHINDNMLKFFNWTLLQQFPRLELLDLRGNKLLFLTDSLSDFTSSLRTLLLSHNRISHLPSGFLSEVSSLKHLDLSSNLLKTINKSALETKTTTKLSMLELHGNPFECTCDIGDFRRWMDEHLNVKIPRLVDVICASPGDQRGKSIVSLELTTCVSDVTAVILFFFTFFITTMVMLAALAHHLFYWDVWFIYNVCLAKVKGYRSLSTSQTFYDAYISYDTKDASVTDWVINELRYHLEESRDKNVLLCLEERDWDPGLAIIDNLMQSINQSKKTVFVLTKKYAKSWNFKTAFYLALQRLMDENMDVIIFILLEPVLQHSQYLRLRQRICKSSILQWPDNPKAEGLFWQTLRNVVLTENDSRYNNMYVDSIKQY
Nature of the data set: Agonistic activity on human TLR8 in HEK-Blue hTLR8 cells (QUANTI-Blue). The settings on record: 24 h incubation, OD650, read-out: hTLR 8 EC50. The data set is classed as cell-based.

Data set [1] is described as follows: Cell toxicity (Celltiter-Glo) in HEK-Blue hTLR8 cells. The settings on record: human. On the technique in general: ATP-based viability assays read luminescence as a measure of living cells.
A further data set addresses T2, hTLR7 (Homo sapiens, UniProt Q9NYK1).
T2 construct: expressed in transfected cells; host or cells: HEK-Blue hTLR7 cells
T2 sequence (Q9NYK1 27-1049): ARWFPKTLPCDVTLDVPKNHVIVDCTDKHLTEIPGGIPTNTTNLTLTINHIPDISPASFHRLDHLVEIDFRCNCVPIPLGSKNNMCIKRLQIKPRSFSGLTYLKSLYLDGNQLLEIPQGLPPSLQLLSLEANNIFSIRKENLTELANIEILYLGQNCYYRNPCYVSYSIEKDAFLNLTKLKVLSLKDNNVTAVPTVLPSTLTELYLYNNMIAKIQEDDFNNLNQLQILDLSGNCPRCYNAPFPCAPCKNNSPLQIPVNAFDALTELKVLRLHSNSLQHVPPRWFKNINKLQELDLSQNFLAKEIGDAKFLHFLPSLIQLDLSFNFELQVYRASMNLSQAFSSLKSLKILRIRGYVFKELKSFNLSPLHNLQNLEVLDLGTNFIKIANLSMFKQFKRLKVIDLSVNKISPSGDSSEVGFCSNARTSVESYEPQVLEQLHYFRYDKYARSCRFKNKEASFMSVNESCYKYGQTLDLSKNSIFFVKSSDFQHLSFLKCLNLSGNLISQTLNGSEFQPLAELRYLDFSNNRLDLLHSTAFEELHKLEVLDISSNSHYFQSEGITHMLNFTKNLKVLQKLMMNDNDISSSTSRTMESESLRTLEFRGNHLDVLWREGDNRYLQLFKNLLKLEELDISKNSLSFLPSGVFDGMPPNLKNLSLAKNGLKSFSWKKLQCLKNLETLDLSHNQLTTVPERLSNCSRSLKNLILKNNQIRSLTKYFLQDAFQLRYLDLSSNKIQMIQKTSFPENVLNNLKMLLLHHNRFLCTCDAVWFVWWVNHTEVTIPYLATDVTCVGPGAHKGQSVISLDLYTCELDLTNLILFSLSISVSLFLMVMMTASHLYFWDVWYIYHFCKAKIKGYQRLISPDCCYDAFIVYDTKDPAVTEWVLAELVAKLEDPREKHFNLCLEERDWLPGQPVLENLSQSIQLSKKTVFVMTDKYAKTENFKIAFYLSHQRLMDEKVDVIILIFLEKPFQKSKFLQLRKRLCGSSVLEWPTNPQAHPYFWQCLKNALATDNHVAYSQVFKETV
Nature of the data set: Agonistic activity on human TLR7 in HEK-Blue hTLR7 cells (QUANTI-Blue). Type of data set: cell-based. The settings on record: 24 h incubation, OD650, read-out: hTLR 7 EC50.

A value given as a limit tells only on which side of the number the result lay.

The source of these data is patent US20250163051A1, “PYRIMIDO AROMATIC RING COMPOUND AND USE THEREOF IN DRUG” (SUNSHINE LAKE PHARMA CO., LTD., priority 2022, published 2025).

In general, EC50 refers to the concentration at which the effect is half-maximal. For orientation: CC50 means the concentration at which the toxic effect on the cells reaches its halfway point. Lower therefore signals greater toxicity to the cells.

For the compound `C=CCCN(CCC=C)Cc1c[nH]c(=O)cc1-c1cnc2c(N[C@@](C)(CO)CCCC)nc(N)nc2c1` [Example 13], the half-maximal effective concentration (EC50) is 1730 nM on hTLR8 and 81500 nM on hTLR7. In addition, the CC50 at 24 h in data set [1] worked out at 97300 nM.

`CCCC[C@](C)(CO)Nc1nc(N)nc2cc(-c3cc(=O)[nH]cc3CN3CCSCC3)cnc12` [Example 25]: the results for the EC50 at hTLR8 and at hTLR7 were 130 nM and greater than 100000 nM, respectively. Also, the CC50 at 24 h in data set [1] was greater than 100000 nM.

As to `C=CCCN(Cc1c[nH]c(=O)cc1-c1cnc2c(N[C@@](C)(CO)CCCC)nc(N)nc2c1)C(C)C` [Example 19], the EC50 at hTLR8 is 255 nM; at hTLR7, greater than 100000 nM. In data set [1], the half-maximal cytotoxic concentration (CC50) at 24 h is greater than 100000 nM.

Take `CCCC[C@](C)(CO)Nc1nc(N)nc2cc(-c3cc(=O)[nH]cc3CN(C)CCC3CC3)cnc12` [Example 12]: the figures for the EC50 at hTLR8 and on hTLR7 were 19 nM and 50800 nM, respectively.

For `CCCC[C@](C)(CO)Nc1nc(N)nc2cc(-c3cc(=O)[nH]cc3CSC)cnc12` [Example 52, (R)-4-(2-Amino-4-((1-hydroxy-2-methylhexan-2-yl)amino)pyrido[3,2-d]pyrimidin-7-yl)-5-((methylthio)methyl)pyridin-2(1H)-one], the EC50 at hTLR8 came out at 30 nM; at hTLR7, 18400 nM. Besides, the CC50 at 24 h in data set [1] was greater than 100000 nM.

For the compound `C=CCCN(CCC=C)Cc1cn(C)c(=O)cc1-c1cnc2c(N[C@@](C)(CO)CCCC)nc(N)nc2c1` [Example 3], the EC50 on hTLR8 was 1460 nM; at hTLR7 it was greater than 100000 nM.

For `CCCC[C@](C)(CO)Nc1nc(N)nc2cc(-c3cc(=O)n(C)cc3CNCCOC)ccc12` [Example 61, (R)-4-(2-Amino-4-((1-hydroxy-2-methylhexan-2-yl)amino)quinazolin-7-yl)-5-(((2-methoxyethyl)amino)methyl)-1-methylpyridin-2(1H)-one], the EC50 at hTLR8 was 418 nM; on hTLR7, greater than 100000 nM. In addition, the CC50 at 24 h in data set [1] was greater than 100000 nM.

For `CCCC[C@H](CO)Nc1nc(N)nc2cc(-c3cc(=O)[nH]cc3CN(C)CCCC)cnc12` [Example 43, (R)-4-(2-Amino-4-((1-hydroxyhexan-2-yl)amino)pyrido[3,2-d]pyrimidin-7-yl)-5-((butyl(methyl)amino)methyl)pyridin-2(1H)-one], the CC50 at 24 h in data set [1] was greater than 100000 nM.

In the case of `CCCC[C@](C)(CO)Nc1nc(N)nc2cc(-c3cc(=S)[nH]cc3CN(C)CCOC)ccc12` [Example 65, (R)-4-(2-Amino-4-((1-hydroxy-2-methylhexan-2-yl)amino)quinazolin-7-yl)-5-(((2-methoxyethyl)(methyl)amino)methyl)pyridine-2(1H)-thione], the EC50 at hTLR8 was 212 nM; at hTLR7, greater than 100000 nM. The same compound had a CC50 at 24 h in data set [1] greater than 100000 nM.

Turning to `C=CCCN(C)Cc1cn(C)c(=O)cc1-c1cnc2c(N[C@@](C)(CO)CCCC)nc(N)nc2c1` [Example 7], the EC50 on hTLR8 was 315 nM; on hTLR7, greater than 100000 nM. The compound further yielded a cytotoxic concentration (CC50) at 24 h in data set [1] greater than 100000 nM.

Consider `C=CCCN(C)Cc1cn(C2CCN(C)CC2)c(=O)cc1-c1cnc2c(N[C@@](C)(CO)CCCC)nc(N)nc2c1` [Example 37, (R)-4-(2-Amino-4-((1-hydroxy-2-methylhexan-2-yl)amino)pyrido[3,2-d]pyrimidin-7-yl)-5-((but-3-en-1-yl(methyl)amino)methyl)-1-(1-methylpiperidin-4-yl)pyridin-2(1H)-one], for which the results for the EC50 on hTLR8 and at hTLR7 were 397 nM and greater than 100000 nM, respectively.

For `C=CCCN(CCC=C)Cc1c[nH]c(=O)cc1-c1ccc2c(N[C@@](C)(CO)CCCC)nc(N)nc2c1` [Example 31], the EC50 amounted to 209 nM on hTLR8 and 56700 nM on hTLR7.

For `CCCC[C@](C)(CO)Nc1nc(N)nc2cc(-c3cc(=O)n(C)cc3CN(C)CCC3CC3)cnc12` [Example 2], the values for the EC50 at hTLR8 and at hTLR7 were 100 nM and greater than 100000 nM, respectively.

With `CCCCN(C)Cc1c[nH]c(=O)cc1-c1cnc2c(N[C@](C)(CCCC)COC)nc(N)nc2c1` [Example 53, (R)-4-(2-Amino-4-((1-methoxy-2-methylhexan-2-yl)amino)pyrido[3,2-d]pyrimidin-7-yl)-5-((butyl(methyl)amino)methyl)pyridin-2(1H)-one], the EC50 at hTLR8 is 680 nM.

On to `CCCC[C@](C)(CO)Nc1nc(N)nc2cc(-c3cc(=O)[nH]cc3CN(C)CCc3ccccc3)cnc12` [Example 11], for which the EC50 on hTLR8 is 1650 nM.

Regarding `C#CCCN(C)Cc1cn(C)c(=O)cc1-c1cnc2c(N[C@@](C)(CO)CCCC)nc(N)nc2c1` [Example 6], the EC50 was 3900 nM at hTLR8 and greater than 100000 nM at hTLR7.

In turn, `CCCC[C@](C)(CO)Nc1nc(N)nc2cc(-c3cc(=O)[nH]cc3CN3CCNCC3)cnc12` [Example 15] displayed a CC50 at 24 h in data set [1] greater than 100000 nM.

`CCCC[C@](C)(CO)Nc1nc(N)nc2cc(-c3cc(=O)n(C)cc3CN(C)CCc3ccccc3)cnc12` [Example 1, (R)-4-(2-Amino-4-((1-hydroxy-2-methylhexan-2-yl)amino)pyrido[3,2-d]pyrimidin-7-yl)-1-methyl-5-((methyl(phenethyl)amino)methyl)pyridin-2(1H)-one]: the EC50 at hTLR8 came out at 1820 nM; at hTLR7 it was 73000 nM.

Regarding `CCCCN(CCCC)Cc1cn(C)c(=O)cc1-c1cnc2c(N[C@@](C)(CO)CCCC)nc(N)nc2c1` [Example 4], the EC50 at hTLR8 was 1070 nM; on hTLR7, greater than 100000 nM.

Regarding `CCCCN(C)Cc1c[nH]c(=O)cc1-c1cnc2c(N[C@@](C)(CO)CCCC)nc(N)nc2c1` [Example 69, 4-(2-Amino-4-((1-hydroxy-2-methylhexan-2-yl)amino)pyrido[3,2-d]pyrimidin-7-yl)-5-((butyl(methyl)amino)methyl)pyridin-2(1H)-one], the half-maximal effective concentration (EC50) amounted to 23 nM on hTLR8 and 12000 nM on hTLR7.

Consider `CCCC[C@](C)(CO)Nc1nc(N)nc2cc(-c3cc(=O)[nH]cc3CN(C)CCc3ccccc3)ccc12` [Example 29, (R)-4-(2-Amino-4-((1-hydroxy-2-methylhexan-2-yl)amino)quinazolin-7-yl)-5-((methyl(phenethyl)amino)methyl)pyridin-2(1H)-one], for which the EC50 turned out to be 267 nM on hTLR8 and 23200 nM on hTLR7.

As for `CCCCN(CCCC)Cc1c[nH]c(=O)cc1-c1ccc2c(N[C@@](C)(CO)CCCC)nc(N)nc2c1` [Example 32], the EC50 on hTLR8 was found to be 399 nM; at hTLR7 it was 47200 nM.

Regarding `CCCC[C@](C)(CO)Nc1nc(N)nc2cc(-c3cc(=O)[nH]cc3CN3CCCCC3)cnc12` [Example 16], the EC50 at hTLR8 amounted to 104 nM; on hTLR7 it was 65800 nM.

Regarding `CCCC[C@](C)(CO)Nc1nc(N)nc2cc(-c3cc(=O)[nH]cc3CN3CCC(F)(F)CC3)cnc12` [Example 26], the EC50 on hTLR8 is 845 nM; on hTLR7, 54600 nM.
